SMILES strings stand for the structures. Active and inactive are the calls of the source. The calls are words filed in the database; no cut-off is given here.

The results in this text go back to ChEMBL document CHEMBL1777719, “Norcantharidin analogues with nematocidal activity in Haemonchus contortus” (Bioorg Med Chem Lett, 2011).

The nature of data set [1]: Cytotoxicity against human SW480 cells after 72 hrs by MTT assay. The format is cell-based.
A short description of data set [2]: Cytotoxicity against human DU145 cells after 72 hrs by MTT assay. Format: cell-based, DU-145. In general terms: Formazan colour is commonly taken as a measure of viable cells.
A short description of data set [3]: Cytotoxicity against human A2780 cells after 72 hrs by MTT assay. Format: cell-based.
Data set [4] is described as follows: Cytotoxicity against human SJ-G2 cells after 72 hrs by MTT assay. The format is cell-based.
Data set [5] in a line: Cytotoxicity against human HT-29 cells after 72 hrs by MTT assay. Format: cell-based.
The next data set concerns Haemonchus contortus. The experiment in a line: Nematocidal activity against Haemonchus contortus Haecon 5 strain isolated from helminth-free Merino weaner sheep at 12.5 to 100 uM after 6 days by larval development assay. Format: functional, organism-based.
Data set [6] in a line: Cytotoxicity against human H460 cells after 72 hrs by MTT assay. The format is cell-based. The settings on record: NCI-H460 cells.
The nature of data set [7]: Cytotoxicity against human BE(2)-C cells after 72 hrs by MTT assay. The format is cell-based.
Data set [8] in a line: Cytotoxicity against human A431 cells after 72 hrs by MTT assay. Format: cell-based, A-431.
Data set [9] is described as follows: Cytotoxicity against human MCF7 cells after 72 hrs by MTT assay. Format: cell-based.

For orientation: GI50 means the concentration at which growth is held to half of that of the control. With `CCCCNC(=O)C1C(C(=O)O)[C@@H]2CC[C@H]1O2` (stereo not given in full), the GI50 at 72 h in [1], in data set [2], in data set [3], in data set [4], in data set [5] and in data set [6] was 10 µM throughout. The 50% growth inhibitory concentration (GI50) at 72 h in [7], in [8] and in [9] was 10 µM each time. Further, in the data set on Haemonchus contortus, the inhibition result is “inactive”.
`C=CCNC(=O)C1C(C(=O)O)[C@@H]2CC[C@H]1O2` (stereo not given in full): the GI50 at 72 h in [1], in [2], in data set [3], in [4], in data set [5] and in data set [6] was 10 µM throughout. Moreover, the concentration for 50% growth inhibition (GI50) at 72 h in [7], in data set [8] and in data set [9] was 10 µM in each case. The inhibition result in the data set on Haemonchus contortus was “inactive”.
In the case of `CCCNC(=O)C1C(C(=O)O)[C@@H]2CC[C@H]1O2` (stereo not given in full), the 50% growth inhibitory concentration (GI50) at 72 h in data set [1], in data set [2], in data set [3], in [4], in data set [5] and in data set [6] was 10 µM throughout. Also, the GI50 at 72 h in data set [7], in data set [8] and in data set [9] was 10 µM throughout. In addition, in the data set on Haemonchus contortus, the inhibition result is “inactive”.
For `O=C(O)C1C(C(=O)Nc2ccc(CO)cc2)[C@H]2CC[C@@H]1O2` (stereo not given in full), the GI50 at 72 h in data set [1], in data set [2], in [3], in data set [4], in data set [5] and in [6] was 10 µM each time. Moreover, the GI50 at 72 h in data set [7], in data set [8] and in data set [9] was 10 µM throughout. In addition, the inhibition entry in the data set with Haemonchus contortus is “inactive”.
In the case of `O=C(O)c1ccc(NC(=O)C2C(C(=O)O)[C@@H]3CC[C@H]2O3)cc1Cl` (stereo not given in full), the GI50 at 72 h in data set [1], in data set [2], in [3], in [4], in data set [5] and in data set [6] was 10 µM each time. Besides, the GI50 at 72 h in data set [7], in data set [8] and in data set [9] was 10 µM each time. The inhibition result with Haemonchus contortus was “inactive”.
As to `CCc1ccccc1NC(=O)C1C(C(=O)O)[C@@H]2CC[C@H]1O2` (stereo not given in full), the GI50 at 72 h in data set [1], in data set [2], in [3], in data set [4], in data set [5] and in data set [6] was 10 µM each time. The 50% growth inhibitory concentration (GI50) at 72 h in data set [7], in data set [8] and in data set [9] was 10 µM throughout. The inhibition result in the data set with Haemonchus contortus was “inactive”.
Consider `CCCCCCCCCCNC(=O)C1C(C(=O)O)[C@@H]2CC[C@H]1O2` (stereo not given in full), for which the GI50 at 72 h in [1], in data set [2], in [3], in data set [4], in data set [5] and in [6] was 10 µM throughout. In addition, the 50% growth inhibitory concentration (GI50) at 72 h in data set [7], in data set [8] and in [9] was 10 µM each time. In the data set on Haemonchus contortus, the inhibition result was “inactive”.
For `O=C(O)C1C(C(=O)NCc2ccc(Cl)cc2)[C@H]2CC[C@@H]1O2` (stereo not given in full), the concentration for 50% growth inhibition (GI50) at 72 h in [1], in data set [2], in data set [3], in data set [4], in data set [5] and in [6] was 10 µM each time. Besides, the concentration for 50% growth inhibition (GI50) at 72 h in data set [7], in data set [8] and in data set [9] was 10 µM each time. Besides, in the data set on Haemonchus contortus, the inhibition entry was “inactive”.
